Patent US8664243B2, “Sulfonamide compound and crystal thereof” (Asahi Kasei Pharma Corporation, priority 2007, dated 2014)

Columns and labels:
Assay type in all cases: physicochemical
[1] = Thermal stability test (sealed glass vial, dark place, 60° C.); details: for Appearance / Water content / Purity: 60° C., dark, sealed vial; for Purity: HPLC
Protocol: Thermal stability of Compound 1 or the substance in the form of a salt can be evaluated by, for example, sealing a sample in a glass vial or the like, storing the vial under a severe temperature condition such as 40 to 80° C. in a dark place for a given period of time, and then observing or measuring appearance, purity, water content and the like of Compound 1 or the substance in the form of a salt. Change of purity before and after storage especially serves as an important index of thermal stability. For example, the evaluation is preferably performed under a storage condition of 60° C. • High performance liquid chromatography apparatus: LC-10A Series (Shimadzu) or Agilent 1100 series (Agilent Technologies) • Solution concentration: 500 μg/ml • Injection: 10 μl • Detector: Ultraviolet absorptiometer (measurement wavelength: 245 nm) • Column: XBridge Shield RP18 5 μm, internal diameter: 4.6 mm, length: 15 cm (Waters) • Column temperature: Constant temperature around 40° C. • Mobile phase A: 20 mmol/l Sodium phosphate buffer (pH 7.0) • Mobile phase B: Acetonitrile • Liquid feeding program: A concentration gradient was formed by changing the mixing ratio of the mobile phase A and the mobile phase B as shown in Table 1. • Flow rate: 1.0 ml/minute • Water content measurement apparatus: AQ-7 (Hiranuma Sangyo) • Sample amount: 5 mg • Anolyte: Aqualyte RS (Sigma-Aldrich) • Catholyte: Aqualyte CN (Sigma-Aldrich) The monohydrochloride obtained by the method described in Example 3, the monohydrobromide obtained by the method described in Example 4, and the dihydrochloride as a control were weighed in a glass vial in an amount of 40 mg each, and the glass vial was sealed. Each sample was stored in a dark place at 60° C. for 2 to 4 weeks, and after the storage, appearance was evaluated by visual inspection. Further, purity was measured under the conditions of Test Example 7, and water content was measured under the conditions of Test Example 8.

[2] = Hygroscopicity Test 1 (open glass weighing dish, dark place, 25° C. and 84% RH); details: for Appearance / Water content / Purity: 25° C. and 84% RH, dark, open; for Purity: HPLC
Protocol: Hygroscopicity of Compound 1 or the substance in the form of a salt can be evaluated by putting a sample on a glass weighing dish, storing the dish in a dark place for a given period of time in an open state at a temperature of 25 to 40° C. under a humidification condition of about 75 to 94% relative humidity, and then observing or measuring appearance, purity, water content and the like of Compound 1 or the substance in the form of a salt. Increase of water content before and after storage especially serves as an important hygroscopic index. For example, the evaluation is preferably performed after storage conditions of 25° C. and 84% RH. • High performance liquid chromatography apparatus: LC-10A Series (Shimadzu) or Agilent 1100 series (Agilent Technologies) • Solution concentration: 500 μg/ml • Injection: 10 μl • Detector: Ultraviolet absorptiometer (measurement wavelength: 245 nm) • Column: XBridge Shield RP18 5 μm, internal diameter: 4.6 mm, length: 15 cm (Waters) • Column temperature: Constant temperature around 40° C. • Mobile phase A: 20 mmol/l Sodium phosphate buffer (pH 7.0) • Mobile phase B: Acetonitrile • Liquid feeding program: A concentration gradient was formed by changing the mixing ratio of the mobile phase A and the mobile phase B as shown in Table 1. • Flow rate: 1.0 ml/minute • Water content measurement apparatus: AQ-7 (Hiranuma Sangyo) • Sample amount: 5 mg • Anolyte: Aqualyte RS (Sigma-Aldrich) • Catholyte: Aqualyte CN (Sigma-Aldrich) The monohydrochloride obtained by the method described in Example 3, the monohydrobromide obtained by the method described in Example 4, and the dihydrochloride as a control were weighed on a glass weighing dish in an amount of 40 mg each, and each sample was stored in a dark place at 25° C. and 84% RH for 2 to 4 weeks. After the storage, appearance was evaluated by visual inspection. Further, purity was measured under the conditions of Test Example 7, and water content was measured under the conditions of Test Example 8.

[3] = Hygroscopicity Test 2 (25° C. and 84% RH; free base, salts and salt mixtures); details: for Appearance / Water content / Purity: 25° C. and 84% RH, dark; for Purity: HPLC
Protocol: Hygroscopicity of Compound 1 or the substance in the form of a salt can be evaluated by putting a sample on a glass weighing dish, storing the dish in a dark place for a given period of time in an open state at a temperature of 25 to 40° C. under a humidification condition of about 75 to 94% relative humidity, and then observing or measuring appearance, purity, water content and the like of Compound 1 or the substance in the form of a salt. Increase of water content before and after storage especially serves as an important hygroscopic index. For example, the evaluation is preferably performed after storage conditions of 25° C. and 84% RH. • High performance liquid chromatography apparatus: LC-10A Series (Shimadzu) or Agilent 1100 series (Agilent Technologies) • Solution concentration: 500 μg/ml • Injection: 10 μl • Detector: Ultraviolet absorptiometer (measurement wavelength: 245 nm) • Column: XBridge Shield RP18 5 μm, internal diameter: 4.6 mm, length: 15 cm (Waters) • Column temperature: Constant temperature around 40° C. • Mobile phase A: 20 mmol/l Sodium phosphate buffer (pH 7.0) • Mobile phase B: Acetonitrile • Liquid feeding program: A concentration gradient was formed by changing the mixing ratio of the mobile phase A and the mobile phase B as shown in Table 1. • Flow rate: 1.0 ml/minute • Water content measurement apparatus: AQ-7 (Hiranuma Sangyo) • Sample amount: 5 mg • Anolyte: Aqualyte RS (Sigma-Aldrich) • Catholyte: Aqualyte CN (Sigma-Aldrich) Compound 1 obtained by a method similar to the method described in Example 1 (two kinds of lots), the monohydrochloride obtained by the method described in Example 3, the dihydrochloride, and mixtures of the monohydrochloride and the dihydrochloride at ratios of 9:1, 8:2, 6:4, 4:6 and 2:8 were weighed on a glass weighing dish in an amount of each 40 mg, and each sample was stored in a dark place at 25° C. and 84% RH for 2 to 4 weeks. After the storage, appearance was evaluated by visual inspection. Further, purity was measured under the conditions of Test Example 7, and water content was measured under the conditions of Test Example 8.

[4] = Measurement of water content (coulometric titration method); details: as prepared, sample 5 mg
Source text: For evaluation of purity of Compound 1 or the substance in the form of a salt, the area percentage method based on HPLC is convenient. For evaluation of water content of Compound 1 or the substance in the form of a salt, the volumetric titration method, the coulometric titration method described in Japanese Pharmacopoeia, General Test Methods, “Water Determination”, the loss on drying test and the like can be used. When sample weight is small, the coulometric titration method can be preferably chosen.

[5] = storage for two weeks at 25° C. and 84% RH
[6] = after storage at 60° C. for 4 weeks
[7] = after storage at 25° C. and 84% RH for 4 weeks

Row | Compound | Appearance ([1]; after 2 weeks) | Water content ([1]; after 2 weeks) [%] | Appearance ([1]; before storage) | Water content ([1]; before storage) [%] | Purity ([1]; after 2 weeks) [%] | Purity ([1]; before storage) [%] | Appearance ([2]; after 2 weeks) | Water content ([2]; after 2 weeks) [%] | Appearance ([2]; before storage) | Water content ([2]; before storage) [%] | Purity ([2]; after 2 weeks) [%] | Purity ([2]; before storage) [%] | Appearance ([3]; after 2 weeks) | Appearance ([3]; before storage) | Purity ([3]; after 2 weeks) [%] | Purity ([3]; before storage) [%] | also measured
1 | CN[C@H]1CCN(S(=O)(=O)c2cccc3cncc(Cl)c23)C1.Cl.Cl [Dihydrochloride, (S)-1-(4-chloro-5-isoquinolinesulfonyl)-3-(methylamino)pyrrolidine dihydrochloride, reference compound] | Pale brown | 2.93 | White | 3.76 | 99.5 | 98.1 | Brown | 15.24 | White | 3.76 | 99.3 | 98.1 | Pale | White | 99.9 | 100.0 | Change of appearance ([1]; after storage at 60° C. for 2 weeks, dihydrochloride): change of appearance; Changes in physicochemical properties ([1]; stability test at 60° C. for two weeks): changes in physicochemical properties; Moisture absorption ([2]; after storage at 25° C. and 84% RH for 2 weeks): marked moisture absorption; Change of appearance ([2]; after storage at 25° C. and 84% RH for 2 weeks, dihydrochloride): apparent change of appearance; Changes in physicochemical properties [2, 5]: changes in physicochemical properties; Hygroscopicity [2, 5]: remarkable hygroscopicity; Water content ([3]; after 2 weeks): 19.8%; Water content ([3]; before storage): 5.2%
2 | CN[C@H]1CCN(S(=O)(=O)c2cccc3cncc(Cl)c23)C1 [Compound 1, (S)-1-(4-chloro-5-isoquinolinesulfonyl)-3-(methylamino)pyrrolidine] |  |  |  |  |  |  |  |  |  |  |  |  | Slightly | Slightly | 99.9 | 99.9 | Water content ([3]; after 2 weeks, listed as Compound 1 (Lot 1)): 5.7%; Water content ([3]; after 2 weeks, listed as Compound 1 (Lot 2)): 7.6%; Appearance ([3]; after 4 weeks): Slightly; Water content ([3]; after 4 weeks, listed as Compound 1 (Lot 1)): 8.1%; Water content ([3]; after 4 weeks, listed as Compound 1 (Lot 2)): 9.1%; Water content ([3]; before storage, listed as Compound 1 (Lot 1)): 0.9%; Water content ([3]; before storage, listed as Compound 1 (Lot 2)): 1.7%; Purity ([3]; after 4 weeks): 99.9%; Moisture absorption ([3]; both lots, after storage at 25° C. and 84% RH for 4 weeks): further moisture absorption
3 | Br.CN[C@H]1CCN(S(=O)(=O)c2cccc3cncc(Cl)c23)C1 [Monohydrobromide, (S)-1-(4-chloro-5-isoquinolinesulfonyl)-3-(methylamino)pyrrolidine monohydrobromide] | White | 0.05 | White | 0.14 | 99.9 | 99.7 | White | 0.05 | White | 0.14 | 99.9 | 99.7 |  |  |  |  | Appearance ([1]; after 4 weeks): White; Water content ([1]; after 4 weeks): 0.05%; Purity ([1]; after 4 weeks): 99.8%; Thermal stability compared with the dihydrochloride ([1]; Test Example 9, 60° C.): more satisfactory thermal stability; Change of appearance [1, 6]: no change of appearance; Degradation of purity [1, 6]: no degradation of purity; Appearance ([2]; after 4 weeks): White; Water content ([2]; after 4 weeks): 0.05%; Purity ([2]; after 4 weeks): 99.7%; Hygroscopicity compared with the dihydrochloride ([2]; Test Example 10, 25° C. and 84% RH): remarkably lower hygroscopicity; Change of appearance [2, 7]: no change of appearance; Degradation of purity [2, 7]: no degradation of purity; Increase of water content [2, 7]: no substantial increase of water content; Water content [4]: 0.14%
